Values quoted from earlier work as cited in US12409168B2, “Formulations of aminopenicillin and methods for solubilizing aminopenicillin” (VETERINARY PHARMACY CORPORATION, priority 2023, dated 2025).

degradation at 24 hours (0.00015 mg/ml, 24 hours): no degradation
degradation to (potency remaining) at 24 hours (0.42 mg/ml, buffered solution, pH 8.04, 24 hours): 73%
Structure (SMILES): CC1(C)S[C@@H]2[C@H](NC(=O)[C@H](N)c3ccc(O)cc3)C(=O)N2[C@H]1C(=O)O [Amoxicillin]
